Experimental findings from publication PMC7940618, “Specific inhibition of the Survivin–CRM1 interaction by peptide-modified molecular tweezers” (Nature Communications, 2021) are described below.

Peptide text beside a SMILES is read from it.

Common to all, as to type: binding
One experiment concerns the target T1, Survivin120 (Homo sapiens, UniProt O15392).
T1 construct: the only published NMR structure originated from a truncated Survivin (aa 1-120) with improved solubility; GST with PreScission site (N); made in house; host or cells: Escherichia coli soluBL21
Briefly: ITC titration of tweezers with Survivin120 wildtype. The procedure:
The interaction between the tweezers and Survivin was studied by isothermal titration calorimetry (ITC) and NMR spectroscopy. So far, the only published NMR structure originated from a truncated Survivin (aa 1-120) with improved solubility. […] Since the truncated construct still contains all relevant parts of the protein and gives excellent NMR spectra (SI5), we chose it for all our in vitro experiments and denote it as Survivin120 in the following results.
(§1) ITC was performed with a MicroCal iTC200 from Malvern Panalytical in PBS, pH 7.4 at 25 °C with molecular tweezers in the cell and Survivin120 in the titration syringe. The protein was dialyzed overnight at 4 °C against the PBS buffer. Ligands were dissolved in the respective dialysis buffer. Then, 300 µM TW were titrated with 300 µM Survivin120 WT or 321 µM Survivin120 K90/103T. Then, 100 µM TW-ELTL, TW-ELTLGEFL, or TW-LFEEGLLT was titrated with 1.2 mM Survivin120 WT or 2.5 mM Survivin120 K90/103T. For reverse titrations, either 33.3 or 34.4 µM Survivin120 in the cell was titrated with 5 mM TW or TW-ELTL in the syringe, respectively. All titrations were performed in PBS, pH 7.4 at 25 °C. Then, 1.5 μL injections were used with 120 s spacing time between injections. The injection rate was set to 0.5 µL/s and the reference power was 5 µcal/s. ITC thermograms were fitted to a one set of sites model with the software Origin (v7.0552) provided with the instrument. Heat of dilution was subtracted as constant from each data point.
(§2) ITC thermograms were fitted to a one set of sites model with the software Origin provided with the instrument. Heat of dilution was subtracted as constant from each data point. From three independent experiments (n = 3), one representative example was depicted, and thermodynamic data were derived thereof. For pull-down experiments, only the representative quantification of the depicted western blot is shown. […] Fluorescence anisotropy graphs were generated with GraphPad Prism 5.0. Depicted error bars represent the standard deviation of three independent titrations.
For orientation: Isothermal titration calorimetry measures the heat released or taken up as one component is titrated into another.

A further experiment has as its target T2, Survivin–CRM1 complex (Homo sapiens, UniProt O15392).
T2 construct: expressed in transfected cells; host or cells: 293T cells (Survivin142-HA); E. coli soluBL21 (GST-CRM1, RanQ69L)
As to the kind of experiment: Pull-down with 293T lysate (Survivin142-HA), GST-CRM1 bait, RanQ69L, dGTP. As for the experimental part: We next investigated whether tweezers inhibit the Survivin–CRM1 complex formation in vitro. The effects of the unmodified and peptide-linked tweezers were analyzed via pull-down experiments with 293T lysates containing overexpressed HA-tagged Survivin142, recombinant GST-CRM1 as bait protein, and tweezers (Fig. 6). The parent and ELTL-linked tweezer required 10–50 µM to disrupt the Survivin–CRM1 complex. […] In order to provide experimental evidence for the sequence selectivity of the TW-ELTLGEFL ligand, a scrambled analog was synthesized and clicked to the tweezer, resulting in the hybrid molecule TW-LFEEGLLT (SI1, SI2, and SI10). […] Instead, the slight chemical shift perturbations might be due to the spatial proximity of the peptide moiety to the anchoring residue. All those results strongly indicate that the additional binding energy from the NES interface was lost due to scrambling and thus point toward specific recognition as the reason for increased selectivity and interference with the Survivin–CRM1 interaction. Of note, very high tweezer concentrations (100–200 µM) also weakened GST-CRM1 binding to GSH-Sepharose beads, most likely by low-affinity binding to the GST protein.
All pull-down assays were performed at room temperature in pull-down buffer (PBS, pH 7.4, 1 mM DTT, 0.02 Triton X-100). GST fusion proteins were immobilized on 50 μL GSH-coated Sepharose 4B beads from GE Healthcare. The beads were prior equilibrated and blocked with 500 μL pull-down blocking buffer (PBS, pH 7.4, 1 (w/v) BSA, 1 mM DTT, 0.02 (v/v) Triton X-100) for 1 h to prevent unspecific binding.
For analysis of the effective inhibitory tweezer concentration, 200 μg 293T lysate with overexpressed Survivin142-HA was preincubated without ligand or with different concentrations (10 nM to 200 μM) of unmodified tweezer TW, TW-ELTL, TW-ELTLGEFL, or TW-LFEEGLLT for 1 h and then mixed with 35 μg GST-CRM1, 55 μg RanQ69L, and 2 mM dGTP. GSH-beads were incubated with this protein mixture for 2 h under rotation. […]
Samples of input and beads taken during pull-down experiments were ran on 12.5 SDS gels and transferred onto 0.2 µM PVDF membranes (Amersham Hybond P 0.2) using a PerfectBlue™ tank electro blotter (Peqlab) at 350 mA for 150 min. […] Chemiluminescence was detected and imaged using the Pierce ECL Plus Western Blotting Substrate kit (Thermo Fisher Scientific) and Chemidoc system (Bio-Rad) or film processor Cawomat 2000 IR (CAWO). Western blots were analyzed by densitometric analysis with ImageJ version 1.52p (U.S. National Institutes of Health), measuring the mean gray intensity of protein bands. […]

The next experiment deals with T3, Survivin120 K90/103T (Homo sapiens, UniProt O15392, K103T/K90T).
T3 construct: the only published NMR structure originated from a truncated Survivin (aa 1-120) with improved solubility; GST with PreScission site (N); made in house; host or cells: Escherichia coli soluBL21
Briefly: ITC titration of tweezers with Survivin120 K90/103T mutant.
Source text: If the tweezer-based inhibitors indeed bind to lysines/arginines flanking the NES (K90, K91, K103, R106), their mutation to, e.g., threonine, should abolish the observed effects. For this reason, we generated double and triple Survivin120 mutants lacking these putative tweezer anchor points. Unfortunately, most double mutants and especially the triple mutants were unfolded as evidenced by 1D ^1H NMR (SI6); finally, the correctly folded double threonine mutant Survivin120 K90/103T was chosen for further investigation. […] Next, binding of FAM-labeled tweezers (SI3) to either Survivin120 wildtype or the K90/103T mutant was studied by fluorescence anisotropy (Fig. 7d–f). […] We conclude that lysines 90 and 103 are indeed essential for efficient tweezer binding.
as §1, §2

T1 sequence (O15392 1-120): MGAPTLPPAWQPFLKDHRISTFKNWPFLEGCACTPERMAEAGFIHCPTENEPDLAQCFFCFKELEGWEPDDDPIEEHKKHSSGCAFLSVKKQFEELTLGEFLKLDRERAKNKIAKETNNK
T2 sequence (O15392 whole entry, one chain of several): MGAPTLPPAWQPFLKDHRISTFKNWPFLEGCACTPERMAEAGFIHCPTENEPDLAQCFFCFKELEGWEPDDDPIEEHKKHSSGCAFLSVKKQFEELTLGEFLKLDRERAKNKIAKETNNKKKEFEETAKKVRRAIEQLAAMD
T3 sequence (O15392 1-120 K90T/K103T): as the sequence (O15392 1-120) above, with K90T, K103T counted along it

`CC(C)C[C@H](NC(=O)Cn1cc(CCOP(=O)(O)Oc2c3c(c(OP(=O)(O)O)c4c2C2CC4c4cc5c(cc42)C2CC5c4ccccc42)C2CC3c3cc4c(cc32)C2CC4c3ccccc32)nn1)C(=O)N[C@@H](Cc1ccccc1)C(=O)N[C@@H](CCC(=O)O)C(=O)N[C@@H](CCC(=O)O)C(=O)NCC(=O)N[C@@H](CC(C)C)C(=O)N[C@@H](CC(C)C)C(=O)N[C@H](C(=O)O)[C@@H](C)O` [TW-LFEEGLLT] (HELM PEPTIDE1{[O=C(Cn1cc(CCOP(=O)(O)Oc2c3c(c(OP(=O)(O)O)c4c2C2CC4c4cc5c(cc42)C2CC5c4ccccc42)C2CC3c3cc4c(cc32)C2CC4c3ccccc32)nn1)[*:2]].L.F.E.E.G.L.L.T}$$$$V2.0): at Survivin120 (ITC KD ratio), the “lower affinity toward wildtype protein compared with TW-ELTLGEFL” value is reported as “~ three”. At Survivin120 (ITC, Survivin120 WT), the “-TΔS” value was -4.7 kcal, the ΔG is -5.7 kcal and the ΔH is on record as -1.0 kcal. For the same molecule, at Survivin120 (ITC, Survivin120 WT, PBS pH 7.4, 25 °C, one set of sites model, mean ± SEM of fit), the dissociation constant (Kd) (in general, the concentration at which binding is half-saturated) came out at 68 ± 22 µM. In addition, the “effectiveness compared with TW-ELTLGEFL” value on Survivin–CRM1 complex (pull-down analyses) is given as “about one order of magnitude less effective”. Moreover, the “concentration inhibiting the Survivin/CRM1 interaction efficiently” value at Survivin–CRM1 complex (pull-down, concentrations between 1 and 50 µM (SI18)) is > 50 µM. The affinity at Survivin120 K90/103T, expressed as Kd, was 55 ± 24 µM. Also, the ΔH at Survivin120 K90/103T (ITC, Survivin120 K90/103T) is on record as -1.4 kcal.
